# Results taken from article PMC6268944.
# Assay: amide bond formation (head-to-tail lactamisation): terminal amine + amino acid COOH, EDC.HCl 2.2 equiv, DMAP 0.2 equiv, substrate (HCl salt) and reagent solutions each added dropwise over 1 h
# Settings: 14-membered ring, CH2Cl2, 4.0 mM, 2 steps
structure (smiles),measurement,setting,value
"CCN1CCN(CC)C(=O)[C@H](C)NC(=O)CNC(=O)c2nc[nH]c2C1=O [H-Ala-[N(Et)CH2CH2N(Et)]-CO-(imidazole-4,5-diyl)-CO-Gly-OH]","ring closure, yield over several steps","from CCN(CCN(CC)C(=O)[C@H](C)N)C(=O)c1[nH]cnc1C(=O)NCC(=O)O, 14.0 h",0%
"CC(C)C[C@@H]1NC(=O)c2nc[nH]c2C(=O)N(C)CCN(C)C(=O)CNC1=O [H-Gly-[N(Me)CH2CH2N(Me)]-CO-(imidazole-4,5-diyl)-CO-Leu-OH]","ring closure, yield over several steps","from CC(C)C[C@H](NC(=O)c1nc[nH]c1C(=O)N(C)CCN(C)C(=O)CN)C(=O)O, 17.5 h",37%
"CC(C)C[C@@H]1NC(=O)[C@H](C)NC(=O)c2nc[nH]c2C(=O)N(C)CCN(C)C1=O [H-Leu-[N(Me)CH2CH2N(Me)]-CO-(imidazole-4,5-diyl)-CO-Ala-OH]","ring closure, yield over several steps","from CC(C)C[C@H](N)C(=O)N(C)CCN(C)C(=O)c1[nH]cnc1C(=O)N[C@@H](C)C(=O)O, 14.0 h",14%
"C[C@H]1NC(=O)c2nc[nH]c2C(=O)N(C)CCN(C)C(=O)CNC1=O [H-Gly-[N(Me)CH2CH2N(Me)]-CO-(imidazole-4,5-diyl)-CO-D-Ala-OH]","ring closure, yield over several steps","from C[C@@H](NC(=O)c1nc[nH]c1C(=O)N(C)CCN(C)C(=O)CN)C(=O)O, 18.0 h",17%
"CCN1CCN(CC)C(=O)c2[nH]cnc2C(=O)N[C@@H](C)C(=O)NCC1=O [H-Gly-[N(Et)CH2CH2N(Et)]-CO-(imidazole-4,5-diyl)-CO-Ala-OH]","ring closure, yield over several steps","from CCN(CCN(CC)C(=O)c1[nH]cnc1C(=O)N[C@@H](C)C(=O)O)C(=O)CN, 14.0 h",9%
"CC(C)C[C@@H]1NC(=O)[C@@H](C)NC(=O)c2nc[nH]c2C(=O)N(C)CCN(C)C1=O [H-Leu-[N(Me)CH2CH2N(Me)]-CO-(imidazole-4,5-diyl)-CO-D-Ala-OH]","ring closure, yield over several steps","from CC(C)C[C@H](N)C(=O)N(C)CCN(C)C(=O)c1[nH]cnc1C(=O)N[C@H](C)C(=O)O, 14.0 h",37%
"C[C@@H]1NC(=O)[C@@H](C)NC(=O)c2nc[nH]c2C(=O)N(C)CCN(C)C1=O [H-Ala-[N(Me)CH2CH2N(Me)]-CO-(imidazole-4,5-diyl)-CO-D-Ala-OH]","ring closure, yield over several steps","from C[C@H](N)C(=O)N(C)CCN(C)C(=O)c1[nH]cnc1C(=O)N[C@H](C)C(=O)O, 14.0 h",0%
"CCN1CCN(CC)C(=O)c2[nH]cnc2C(=O)N[C@H](C)C(=O)NCC1=O [H-Gly-[N(Et)CH2CH2N(Et)]-CO-(imidazole-4,5-diyl)-CO-D-Ala-OH]","ring closure, yield over several steps","from CCN(CCN(CC)C(=O)c1[nH]cnc1C(=O)N[C@H](C)C(=O)O)C(=O)CN, 14.0 h",8%
"C[C@H]1NC(=O)CNC(=O)c2nc[nH]c2C(=O)N(C)CCN(C)C1=O [H-D-Ala-[N(Me)CH2CH2N(Me)]-CO-(imidazole-4,5-diyl)-CO-Gly-OH]","ring closure, yield over several steps","from C[C@@H](N)C(=O)N(C)CCN(C)C(=O)c1[nH]cnc1C(=O)NCC(=O)O, 14.0 h",0%
"C[C@@H]1NC(=O)c2nc[nH]c2C(=O)N(C)CCN(C)C(=O)[C@H](C)NC1=O [H-Ala-[N(Me)CH2CH2N(Me)]-CO-(imidazole-4,5-diyl)-CO-Ala-OH]","ring closure, yield over several steps","from C[C@H](N)C(=O)N(C)CCN(C)C(=O)c1[nH]cnc1C(=O)N[C@@H](C)C(=O)O, 14.0 h",32%
"CC(C)C[C@@H]1NC(=O)c2nc[nH]c2C(=O)N(C)CCN(C)C(=O)[C@H](C)NC1=O [H-Ala-[N(Me)CH2CH2N(Me)]-CO-(imidazole-4,5-diyl)-CO-Leu-OH]","ring closure, yield over several steps","from CC(C)C[C@H](NC(=O)c1nc[nH]c1C(=O)N(C)CCN(C)C(=O)[C@H](C)N)C(=O)O, 14.0 h",12%
CCN1CCN(CC)C(=O)[C@@H](C)NC(=O)[C@@H](C)NC(=O)c2nc[nH]c2C1=O,"ring closure, yield over several steps","from CCN(CCN(CC)C(=O)[C@@H](C)N)C(=O)c1[nH]cnc1C(=O)N[C@H](C)C(=O)O, 14.0 h",9%
"CCN1CCN(CC)C(=O)[C@H](CC(C)C)NC(=O)CNC(=O)c2nc[nH]c2C1=O [H-Leu-[N(Et)CH2CH2N(Et)]-CO-(imidazole-4,5-diyl)-CO-Gly-OH]","ring closure, yield over several steps","from CCN(CCN(CC)C(=O)[C@@H](N)CC(C)C)C(=O)c1[nH]cnc1C(=O)NCC(=O)O, 14.0 h",8%
"CCN1CCN(CC)C(=O)[C@@H](C)NC(=O)CNC(=O)c2nc[nH]c2C1=O [H-D-Ala-[N(Et)CH2CH2N(Et)]-CO-(imidazole-4,5-diyl)-CO-Gly-OH]","ring closure, yield over several steps","from CCN(CCN(CC)C(=O)[C@@H](C)N)C(=O)c1[nH]cnc1C(=O)NCC(=O)O, 14.0 h",3%
"CCN1CCN(CC)C(=O)[C@@H](C)NC(=O)[C@H](C)NC(=O)c2nc[nH]c2C1=O [H-D-Ala-[N(Et)CH2CH2N(Et)]-CO-(imidazole-4,5-diyl)-CO-Ala-OH]","ring closure, yield over several steps","from CCN(CCN(CC)C(=O)[C@@H](C)N)C(=O)c1[nH]cnc1C(=O)N[C@@H](C)C(=O)O, 14.0 h",10%
"CCN1CCN(CC)C(=O)[C@H](CC(C)C)NC(=O)[C@H](C)NC(=O)c2nc[nH]c2C1=O [H-Leu-[N(Et)CH2CH2N(Et)]-CO-(imidazole-4,5-diyl)-CO-Ala-OH]","ring closure, yield over several steps","from CCN(CCN(CC)C(=O)[C@@H](N)CC(C)C)C(=O)c1[nH]cnc1C(=O)N[C@@H](C)C(=O)O, 14.0 h",11%
"CCN1CCN(CC)C(=O)c2[nH]cnc2C(=O)NCC(=O)NCC1=O [H-Gly-[N(Et)CH2CH2N(Et)]-CO-(imidazole-4,5-diyl)-CO-Gly-OH]","ring closure, yield over several steps","from CCN(CCN(CC)C(=O)c1[nH]cnc1C(=O)NCC(=O)O)C(=O)CN, 14.0 h",0%
"C[C@@H]1NC(=O)CNC(=O)c2nc[nH]c2C(=O)N(C)CCN(C)C1=O [H-Ala-[N(Me)CH2CH2N(Me)]-CO-(imidazole-4,5-diyl)-CO-Gly-OH]","ring closure, yield over several steps","from C[C@H](N)C(=O)N(C)CCN(C)C(=O)c1[nH]cnc1C(=O)NCC(=O)O, 14.0 h",0%
"CC(C)C[C@@H]1NC(=O)CNC(=O)c2nc[nH]c2C(=O)N(C)CCN(C)C1=O [H-Leu-[N(Me)CH2CH2N(Me)]-CO-(imidazole-4,5-diyl)-CO-Gly-OH]","ring closure, yield over several steps","from CC(C)C[C@H](N)C(=O)N(C)CCN(C)C(=O)c1[nH]cnc1C(=O)NCC(=O)O, 14.0 h",0%
"C[C@@H]1NC(=O)c2nc[nH]c2C(=O)N(C)CCN(C)C(=O)CNC1=O [H-Gly-[N(Me)CH2CH2N(Me)]-CO-(imidazole-4,5-diyl)-CO-Ala-OH]","ring closure, yield over several steps","from C[C@H](NC(=O)c1nc[nH]c1C(=O)N(C)CCN(C)C(=O)CN)C(=O)O, 21.0 h",7%
"CC(C)C[C@@H]1NC(=O)c2nc[nH]c2C(=O)N(C)CCN(C)C(=O)[C@@H](C)NC1=O [H-D-Ala-[N(Me)CH2CH2N(Me)]-CO-(imidazole-4,5-diyl)-CO-Leu-OH]","ring closure, yield over several steps","from CC(C)C[C@H](NC(=O)c1nc[nH]c1C(=O)N(C)CCN(C)C(=O)[C@@H](C)N)C(=O)O, 14.0 h",11%
"CCN1CCN(CC)C(=O)[C@H](C)NC(=O)[C@H](C)NC(=O)c2nc[nH]c2C1=O [H-Ala-[N(Et)CH2CH2N(Et)]-CO-(imidazole-4,5-diyl)-CO-Ala-OH]","ring closure, yield over several steps","from CCN(CCN(CC)C(=O)[C@H](C)N)C(=O)c1[nH]cnc1C(=O)N[C@@H](C)C(=O)O, 14.0 h",7%
"C[C@@H]1NC(=O)c2nc[nH]c2C(=O)N(C)CCN(C)C(=O)[C@@H](C)NC1=O [H-D-Ala-[N(Me)CH2CH2N(Me)]-CO-(imidazole-4,5-diyl)-CO-Ala-OH]","ring closure, yield over several steps","from C[C@H](NC(=O)c1nc[nH]c1C(=O)N(C)CCN(C)C(=O)[C@@H](C)N)C(=O)O, 14.0 h",22%
"CCN1CCN(CC)C(=O)[C@H](C)NC(=O)[C@@H](C)NC(=O)c2nc[nH]c2C1=O [H-Ala-[N(Et)CH2CH2N(Et)]-CO-(imidazole-4,5-diyl)-CO-D-Ala-OH]","ring closure, yield over several steps","from CCN(CCN(CC)C(=O)[C@H](C)N)C(=O)c1[nH]cnc1C(=O)N[C@H](C)C(=O)O, 14.0 h",8%
C[C@H]1NC(=O)c2nc[nH]c2C(=O)N(C)CCN(C)C(=O)[C@@H](C)NC1=O,"ring closure, yield over several steps","from C[C@@H](N)C(=O)N(C)CCN(C)C(=O)c1[nH]cnc1C(=O)N[C@H](C)C(=O)O, 14.0 h",0%
"CCN1CCN(CC)C(=O)[C@H](CC(C)C)NC(=O)[C@H](CC(C)C)NC(=O)c2nc[nH]c2C1=O [H-Leu-[N(Et)CH2CH2N(Et)]-CO-(imidazole-4,5-diyl)-CO-Leu-OH]","ring closure, yield over several steps","from CCN(CCN(CC)C(=O)[C@@H](N)CC(C)C)C(=O)c1[nH]cnc1C(=O)N[C@@H](CC(C)C)C(=O)O, 14.0 h",0%
"CCN1CCN(CC)C(=O)[C@H](CC(C)C)NC(=O)[C@@H](C)NC(=O)c2nc[nH]c2C1=O [H-Leu-[N(Et)CH2CH2N(Et)]-CO-(imidazole-4,5-diyl)-CO-D-Ala-OH]","ring closure, yield over several steps","from CCN(CCN(CC)C(=O)[C@@H](N)CC(C)C)C(=O)c1[nH]cnc1C(=O)N[C@H](C)C(=O)O, 14.0 h",0%
"CN1CCN(C)C(=O)c2[nH]cnc2C(=O)NCC(=O)NCC1=O [H-Gly-[N(Me)CH2CH2N(Me)]-CO-(imidazole-4,5-diyl)-CO-Gly-OH]","ring closure, yield over several steps","from CN(CCN(C)C(=O)c1[nH]cnc1C(=O)NCC(=O)O)C(=O)CN, 10.5 h",7%
